Read-outs that look alike come from different tables or passages of the source.
Assays:
plasma leptin = assay: Plasma leptin in mice after DCI administration; assay type: in vivo; details: FIG. 4
From the text: (§1) FIG. 3 and FIG. 4 depict, respectively, the effect of DCI administration on leptin mRNA and plasma leptin in mice. […] Thus, DCI enhances the rate of translation and secretion of leptin.

AGRP mRNA = AGRP mRNA levels in diet-induced obese mice; assay type: in vivo; details: FIG. 2
From the text: (§2) A high calorie diet (compositionally equivalent to the typical American diet) will induce obesity and diabetes in some mouse strains (e.g., C57BL/6J) but not others (e.g., A/J). […] These changes in hypothalamic gene expression are ultimately regulated by insulin, although part of the effect may be mediated indirectly by the effect of insulin on leptin synthesis in fat, which then feeds back to hypothalamus to enhance the direct effect of insulin on the hypothalamus. By enhancing the rate of translation and secretion of leptin this hypothalamic response is blocked or attenuated.
(§3) FIG. 1 and FIG. 2 depicts the results of studies in the diet induced mice on NPY and AGRP mRNA levels. DCI leads to lower NPY and AGRP mRNA.

leptin mRNA [1] = assay: Leptin mRNA in mice after DCI administration; assay type: in vivo; details: FIG. 3
From the text: as §1

NPY mRNA = NPY mRNA levels in diet-induced obese mice; assay type: in vivo
From the text: as §2, §3

[2] = Adiposity of mice after DCI administration; assay type: in vivo; details: fed and 48-hour fasted
From the text: as §1

[3] = women with PCOS; cited from earlier work
[4] = obese rodents and humans; cited from earlier work
[5] = ob/ob mice, daily injections; cited from earlier work
leptin mRNA [6] = details: elevation of leptin by injection; cited from earlier work
[7] = lean (wild-type) mice, daily injections; cited from earlier work

Molecule: OC1C(O)C(O)C(O)C(O)C1O [DCI, D-chiro-inositol]
- increase of plasma leptin (plasma leptin; 48-hour fasted mice): over 5 fold
- increase of plasma leptin (plasma leptin; fed mice): over 2 fold
- AGRP mRNA (AGRP mRNA): lower
- leptin mRNA (leptin mRNA [1]): decrease
- NPY mRNA (NPY mRNA; diet induced mice, FIG. 1): lower
- effect of fasting on NPY and AGRP mRNA (NPY mRNA; fasted state, diet-induced obese mice): blocks or attenuates the effect of fasting
- adiposity [2]: without increasing adiposity

Molecule: CN(C)C(=N)N=C(N)N [Metformin]
- fertility [3]: partially restores
- food intake [4]: decreases

B1: leptin: product of the obese (ob) gene, secreted by adipose cells; given as daily injections of recombinant protein (protein, UniProt P41160 22-167, looked up)
Leptin: VPIQKVQDDTKTLIKTIVTRINDISHTQSVSAKQRVTGLDFIPGLHPILSLSKMDQTLAVYQQVLTSLPSQNVLQIANDLENLRDLLHLLAFSKSCSLPQTSGLQKPESLDGVLEASLYSTEVVALSRLQGSLQDILQQLDVSPEC
- body weight and fat [5]: reduction
- food intake [5]: markedly inhibited
- leptin mRNA (leptin mRNA [6]): pronounced decreases
- food intake and body weight [7]: modest decreases

— patent US20020032177A1, “Use of D-chiro-inositol in the treatment of conditions associated with hypothalamic gene expression” (Insmed Pharmaceuticals, Inc., priority 2000, published 2002)
